Source: patent publication US4977152A, “Novel tricyclic derivatives which are agonists of cholinergic receptors, and drugs in which they are present” (Societe Anonyme: Sanofi, priority 1986, dated 1990)
Positions count from the first letter of the chain named. Several values for one entry are separate records, joined by “and”; a condition that tells them apart may be missing. Equal values may be shown once. Where a name gives a salt, the structure may show the parent alone. Read-outs that look alike come from different tables or passages of the source.

Columns and labels:
[1] = molecular target: T1, M1 central muscarinic cholinergic receptors (Mus musculus, UniProt P12657); assay: Antagonism of rotational behavior induced by intrastriatal injection of pirenzepine in mice; assay type: in vivo, mice (female, Swiss, CD 1); conditions: ip, read-out: Pirenzepine antagonism ED50
T1 construct: The intrastriatal injection of PZ into mice induces rotational behavior; from tissue; host or cells: right striatum of living female mice (Swiss, CD 1)
T1 sequence (P12657 1-460): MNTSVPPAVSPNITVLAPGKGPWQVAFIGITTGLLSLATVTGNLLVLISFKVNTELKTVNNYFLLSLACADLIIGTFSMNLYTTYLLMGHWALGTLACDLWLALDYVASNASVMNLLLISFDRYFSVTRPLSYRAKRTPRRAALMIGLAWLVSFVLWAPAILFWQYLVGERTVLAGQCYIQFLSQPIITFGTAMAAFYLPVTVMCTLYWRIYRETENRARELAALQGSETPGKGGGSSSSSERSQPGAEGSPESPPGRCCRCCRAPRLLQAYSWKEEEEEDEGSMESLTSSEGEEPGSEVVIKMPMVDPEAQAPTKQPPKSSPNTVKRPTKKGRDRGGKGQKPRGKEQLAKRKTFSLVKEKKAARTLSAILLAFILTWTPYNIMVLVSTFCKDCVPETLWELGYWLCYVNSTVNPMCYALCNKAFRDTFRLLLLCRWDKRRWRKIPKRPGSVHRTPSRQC
Procedure: Pirenzepine (PZ) is a specific antagonist of M1 central muscarinic cholinergic receptors. The intrastriatal injection of PZ into mice induces rotational behavior. The antagonism of this behavior by the products according to the invention was studied.
The products according to the invention are injected intraperitoneally (i.p.) after solubilization in distilled water or suspension in a 5% solution of gum arabic. The control animals receive an injection of the pure solvent under the same conditions.
The animals used are female mice (Swiss, CD 1, Charles River, France) with a body weight of between 25 and 30 grams.
Pirenzepine is dissolved in a phosphate buffer; the pH of the solution is 6.
The products to be studied or their solvents are injected intraperitoneally, in a volume of 0.4 ml per 20 g of body weight, 15 minutes before a direct injection of pirenzepine at a dose of […] into the right striatum of the mouse, according to the method described by p.
The number of contralateral rotations (rotations in the opposite direction to the side injected) was counted for three 2-minute periods after the injection of pirenzepine: minutes 2 to 4, 8 to 10 and 13 to 15. Each treatment includes 3 to 4 doses and 10 animals per dose. For each treatment, the total number of rotations and the percentage antagonism compared with the control group are calculated.

[2] = molecular target: T2, M2-type muscarinic cholinergic receptor (Cavia porcellus, UniProt H0VRN8); assay: Test for affinity for the M2-type muscarinic cholinergic receptor: displacement of [3H]N-methylscopolamine on smooth muscle of guinea-pig ileum; assay type: binding; conditions: guinea-pig ileum smooth muscle homogenate, 0.3 nM [3H]NMS, 20 min at 30° C., pH 7.5
T2 construct: on a homogenate of smooth muscle of guinea-pig ileum; from tissue; host or cells: guinea-pig ileum smooth muscle homogenate
T2 sequence (H0VRN8 1-466): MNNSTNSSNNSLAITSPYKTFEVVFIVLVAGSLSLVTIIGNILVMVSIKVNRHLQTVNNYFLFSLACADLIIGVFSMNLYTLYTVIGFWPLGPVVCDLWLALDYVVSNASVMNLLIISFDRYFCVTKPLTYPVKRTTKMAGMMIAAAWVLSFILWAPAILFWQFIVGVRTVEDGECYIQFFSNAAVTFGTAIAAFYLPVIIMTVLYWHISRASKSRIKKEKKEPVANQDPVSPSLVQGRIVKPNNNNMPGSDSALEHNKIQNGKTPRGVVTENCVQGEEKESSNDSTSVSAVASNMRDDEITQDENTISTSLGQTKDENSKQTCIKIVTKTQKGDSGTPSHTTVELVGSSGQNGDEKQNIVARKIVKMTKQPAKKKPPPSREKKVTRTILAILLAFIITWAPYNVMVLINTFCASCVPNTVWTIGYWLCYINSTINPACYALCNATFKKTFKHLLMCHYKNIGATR
From the text: (§1) The M1 -type receptors are concentrated in certain areas of the brain, such as the hippocampus, the cerebral cortex and the striatum, and also in the sympathetic ganglia. These binding sites can be selectively labeled with [^3 H]pirenzepine ([^3 H]PZ). The M2 -type receptors predominate in the heart and ileum and can be labeled with [^3 H]N-methylscopolamine ([^3 H]NMS). To determine the selectivity of our molecules towards the M1 and M2 sites, we studied their interaction in vitro with [^3 H]PZ and [^3 H]NMS bound with a high affinity to membranes of rat hippocampus and membranes of smooth muscle of guinea-pig ileum, respectively.
The interaction with M2 -type muscarinic receptors was studied by in vitro measurement, on a homogenate of smooth muscle of guinea-pig ileum, of the displacement of tritiated N-methylscopolamine ([^3 H]NMS) from its specific binding sites. Aliquots (50 μl) of a 0.625% (w/v) homogenate of smooth muscle of guinea-pig ileum in MEPES buffer (20 mM) containing NaCl (100 mM) and MgCl2 (10 mM) (final pH: 7.5) are incubated for 20 min at 30° C. in the presence of [^3 H]NMS ([…]; final concentration: 0.3 nM) and increasing concentrations of products to be tested. The final volume is 1 ml. The reaction is stopped by centrifugation for 5 min at 15,000 × g. The non-specific binding is determined in the presence of 10 μmol/l of atropine sulfate (Ref.: Hammer R., Berrie C. P., Birdsall N. I. M., Burgen A. S. V. and Hulme E. C., Nature, 283, 90-92, 1980; Hulme E. C., Birdsall N.1.M., Burgen A. S. V. and Mettha P., Mol. pharmacol., 14, 737-750, 1978).
(§2) Table 4 indicates the affinities of the products of the invention for M1 and M2 receptors. The results are expressed as 50% inhibitory concentrations (IC50), i.e. the concentration (in μM) which causes a 50% displacement placement of the tritiated ligand bound to the membrane receptors. The IC50 for displacement of ^3 H-pirenzepine represents the affinity for the M1 receptor; the IC50 for displacement of 3H-NMS represents the affinity for the M2 receptor.

[3] = molecular target: T3, M1-type muscarinic cholinergic receptor (Rattus norvegicus, UniProt P08482); assay: Test for affinity for the M1-type muscarinic cholinergic receptor: displacement of [3H]pirenzepine on rat hippocampus homogenate; assay type: binding; conditions: for IC50: rat hippocampus homogenate, 1 nM [3H]PZ, 2 h at 4° C., pH 7.40; for r = (M2 /M1): ratio of IC50 M2 (3H-NMS, guinea-pig ileum) to IC50 M1 (3H-pirenzepine, rat hippocampus)
T3 sequence (P08482 1-460): T1 sequence (P12657 1-460) with P309S
From the text: as §1
The interaction of the molecules with M1 -type muscarinic receptors was studied by in vitro measurement, on a homogenate of rat hippocampus, of the displacement of tritiated pirenzepine ([^3 H]PZ) from its specific binding sites. Aliquots (10 μl) of a 5% (w/v) homogenate of rat hippocampus in an Na2 HPO4 buffer (50 mM, pH 7.40) are incubated for 2 h at 4° C. in the presence of [^3 H]pZ ([…]; final concentration: 1 nM) and increasing concentrations of products to be studied. The final volume is 2 ml. The reaction is stopped by centrifugation for 10 min at 50,000 × g. After decantation and washing of the residues, the bound radioactivity is counted by liquid scintillation. The non-specific binding is determined in the presence of 10 μmol/l of atropine sulfate. The 50% inhibitory concentration (IC50) is determined graphically (Ref.: Watson J. D., Roeskoe W. R. and Yamamura H.1., Life Sci., 31, 2019-2029, 1982).
as §2

[4] = mice, i.p. 15 minutes before intrastriatal pirenzepine, 50% reduction in number of rotations

Compound | ED50 [1, 4] | IC50 [2] | IC50 [3] | r = (M2 /M1) [3] | ED50 [1] | r = (M2 /M1) ([3]; dihydrochloride)
CCN(CC)CCNc1cc2c(nn1)-c1cc(C)c(C)cc1CCC2.Cl.Cl [SR 44663 A, 3-(2-Diethylaminoethylamino)-9,10-dimethyl-6,7-dihydro-5H-benzocyclohepta[5,6-c]pyridazine dihydrochloride] | – | 5 µM | 0.16 µM | 37 | 1 mg/kg | –
Cl.Cl.c1ccc2c(c1)CCCc1cc(NCCN3CCOCC3)nnc1-2 [SR 95639 A, 3-(2-Morpholinoethylamino)-6,7-dihydro-5H-benzocyclohepta[5,6-c]pyridazine dihydrochloride] | – | 55 µM | 0.4 µM | 137 | 5 mg/kg | –
Cl.Cl.c1ccc2c(c1)ccc1cc(NCCN3CCOCC3)nnc12 [SR 95679 A, 3-(2-Morpholinoethylamino)benzo[h]cinnoline dihydrochloride] | – | 100 µM and > 100 µM | 3.1 µM | – | 10 mg/kg | 32 and > 32
Cl.Cl.c1ccc2c(c1)CCc1cc(NCCN3CCOCC3)nnc1-2 [SR 95695 A, 3-(2-Morpholinoethylamino)-5,6-dihydrobenzo[h]cinnoline dihydrochloride] | – | 100 µM and > 100 µM | 2.6 µM | – | 5 mg/kg | 38 and > 38
CCN(CC)CCSc1cc2c(nn1)-c1ccccc1CC2.Cl [SR 95743 A, 3-(2-Diethylaminoethylthio)-5,6-dihydrobenzo[h]cinnoline hydrochloride] | – | 10 µM | 0.7 µM | 14 | 8 mg/kg | –
CN(C)CCOc1cc2c(nn1)-c1ccccc1CC2.Cl [SR 95745 A, 3-(2-Dimethylaminoethoxy)-5,6-dihydrobenzo[h]cinnoline hydrochloride] | – | 80 µM | 3.9 µM | 21 | 8 mg/kg | –
CCN(CC)CCCNc1cc2c(nn1)-c1ccccc1CC2.Cl.Cl [SR 95746 A, 3-(3-Diethylaminopropylamino)-5,6-dihydrobenzo[h]-cinnoline dihydrochloride] | – | 25 µM | 1.5 µM | 17 | 10 to 30 mg/kg | –
CCN(CC)CCNc1cc2c(nn1)-c1cc([N+](=O)[O-])ccc1CCC2.Cl.Cl [SR 95777 A, 3-(2-Diethylaminoethylamino)-10-nitro-6,7-dihydro-5H-benzocyclohepta[5,6-c]pyridazine dihydrochloride] | – | 5.6 µM | 0.1 µM | 56 | 0.5 mg/kg | –
c1ccc2c(c1)CCCc1cc(NCCCN3CCOCC3)nnc1-2 [SR 95817 A] | 2 mg/kg | – | – | – | – | –
CCN(CC)CCSc1cc2c(nn1)-c1ccccc1CCC2 [SR 95820 A, 3-(2-Diethylaminoethylthio)-6,7-dihydro-5H-benzocyclohepta[ [drawing 52] 5,6-c]pyridazine hydrochloride] | 8 mg/kg | 2 µM | 0.07 µM | 29 | – | –

Now from value to compound, other results behind:

ED50 [1, 4] | Compound | IC50 [2] | IC50 [3] | r = (M2 /M1) [3] | ED50 [1] | r = (M2 /M1) ([3]; dihydrochloride)
3 mg/kg | Cc1cc2c(cc1C)-c1nnc(NCCN3CCCC3)cc1CCC2 [SR 44650 A] | – | – | – | – | –
3 mg/kg | Cc1cc2c(cc1C)-c1nnc(NCCN(C(C)C)C(C)C)cc1CCC2 [SR 44664 A] | 2 µM | 0.18 µM | 11 | – | –
1 mg/kg | CN(C)CCNc1cc2c(nn1)-c1cc([N+](=O)[O-])ccc1CCC2 [SR 44681 A] | 9 µM | 0.26 µM | 35 | – | –
3 mg/kg | CCN(CC)CCNc1cc2c(nn1)-c1ccccc1CCC2 [SR 95640 A] | 2 µM | 0.05 µM | 40 | – | –
3 mg/kg | O=C1CN(CCNc2cc3c(nn2)-c2ccccc2CCC3)CCO1 [SR 95696 A, 3-Z-(2-Oxomorpholino)ethylamino]-6,7-dihydro-5H-benzocyclohepta[5,6-c]pyridazine hydrochloride] | – | – | – | – | –
7 mg/kg | CCN(CC)CCCNc1cc2c(nn1)-c1ccccc1CCC2 [SR 95818 A] | 12 µM | 0.24 µM | 50 | – | –
10 mg/kg | OCCNCCNc1cc2c(nn1)-c1ccccc1CCC2 [SR 95819 A, 3-[2-(2-hydroxyethylamino)ethylamino]-6,7-dihydro-5H-benzocyclohepta[5,6-c]pyridazine] | – | – | – | – | –
